What was measured:
[1] = system: dystrophin; experiment: Immunofluorescence staining of dystrophin in TA muscle of drug-treated mdx mice; assay type: in vivo
Description: (§1) Mdx mice were used as a dystrophy mouse model. NM was dissolved in PBS and Millipore-filtered just before injection, in order to avoid degradation during storage in solution. Mdx mice (male, seven week-old, six for each dose) were injected subcutaneously with an NM solution (137 mM NaCl, 2.68 mM KCl, 8.10 mM […], and 1.47 mM KH2PO4) prepared using PBS, at half the concentration (1.2×10^−5 mol/kg) of the solution in the GM experiment by Barton-Davis et al. (Barton-Davis, E. R., Cordiner, L. Shoturma, D. I., Leiland, S. E., Sweeney, H. L. (1999) Aminoglycoside antibiotics restore dystrophin function to skeletal muscles of mdx mice. J. Clin. Invest. 104, 375-381) every day for two weeks. Control mdx mice (n=6) and C57BL/10 (B10, n=6) mice were injected with PBS (0.1 ml) alone, every day for two weeks.
(§2) After injection, immunofluorescence and Evans Blue staining were performed to detect dystrophin. Immunofluoresce staining was carried out as follows using antibodies against the C-terminus of dystrophin. Animals were sacrificed using an overdose of ether gas. The tibialis anterior (TA) muscles were removed and frozen in melting isopentane for immunohistochemistry. Then, 7 μm transverse cryosections were prepared. […] After labeling with secondary antibodies, dystrophin was detected by fluorescence microscopy, based on fluorescence emission. […]

[2] = system: TA muscle fibers; experiment: Evans Blue Dye staining of degenerating muscle fibers in drug-treated mdx mice; assay type: in vivo; conditions: 1.2×10^−5 mol/kg/day subcutaneously for two weeks, FIG. 2
Description: as §1, §2

[3] = system: dystrophin; experiment: Immunoprecipitation and immunoblotting of dystrophin in muscles of NM-treated mdx mice; assay type: in vivo
Description: The left hind leg muscle (600 mg), the diaphragm (100 mg), and the cardiac muscle (100 mg) were collected from NM-treated mdx mice, NM-untreated mdx mice, and B10 mice as described above. Each of the specimens was homogenized in 15 ml of a homogenizing solution (pH 7.2) (pyrophosphate mixture, 20 mM Na4P2O7, 20 mM NaH2PO4, and 1 mM MgCl2, pH 7.1) containing 10% sucrose and 0.5 mM EDTA. The homogenization was carried out with a Teflon homogenizer at maximal speed for one minute (Mitchell, R. D., Palade, P., and Fleicher, S. (1983) Purification of morphologically intact triad structures from skeletal muscle. J. Cell Biol. 96, 1008-1016; Yoshida, M., Suzuki, A., Shimizu, T., and Ozawa, E. (1992) Proteinase-sensitive sites on isolated rabbit dystrophin. J. Biochem. 112, 433-439). The homogenate was centrifuged in an RA rotor (KUBOTA) at 9,000 rpm for 15 minutes. […]
Immunoprecipitation was performed as described by Abe et al. (Abe, M., Saitoh, O., Nakata, H., Yoda, A., and Matsuda, R. (1996) Expression of neurofilament proteins in proliferating C2C12 mouse skeletalmuscle cells. Exp. Cell Res. 229, 48-59) using muscle protein sample preparations prepared from mdx mice and B10 mice as described above. […] After boiling, the supernatant was collected, and the protein concentration thereof was determined by microburette method. […]

[4] = system: dystrophin; experiment: Immunofluorescence staining of dystrophin in cultured mdx-sk myotubes; assay type: cell-based, mdx mouse; conditions: 50 μg/ml, seven days
Text: The SV40T immortalized mdx satellite cell line, mdx-sk, was newly established from the mdx mouse to test the dystrophin restoring level in cultured mdx skeletal muscle cells. The mdx-sk line was established by introducing a retroviral vector carrying a cDNA for the temperature-sensitive form of the Simian Virus 40 large T antigen (a kind gift from Dr. Drinkwater) to a primary culture of mdx myoblasts obtained from the mdx mice. The retrovirus was produced using the packaging cell line, Plat-E, as previously described (Morita, S., Kojima, T., Kitamura, T. (2000) Plat-E: an efficient andstable system for transient packaging of retroviruses. Gene Therapy 7, 1063-1066). The cell line was cultured and maintained in Dulbecco's Modified Eagle Medium (DMEM)-high glucose (4,500 mg/l) supplemented with 20% fetal calf serum at 32.5° C. in a CO2 incubator. To induce muscle differentiation, the culture medium was changed to a differentiation medium (10% horse serum in Eagle MEM) and the culture temperature was shifted to 39.5° C. […]
In order to examine whether NM can restore dystrophin expression in the mdx-sk cells established as described above, NM was added at a concentration of 50 μg/ml or 100 μg/ml to a differentiation medium of myotubes cultured for seven days, and then culture was continued for another seven days. […] The cells were then observed under a fluorescence microscope.

[5] = system: dystrophin; experiment: Immunoblotting of dystrophin in cultured mdx-sk myotubes; assay type: cell-based, mdx mouse; conditions: 100 μg/ml, seven days
Text: The SV40T immortalized mdx satellite cell line, mdx-sk, was newly established from the mdx mouse to test the dystrophin restoring level in cultured mdx skeletal muscle cells. The mdx-sk line was established by introducing a retroviral vector carrying a cDNA for the temperature-sensitive form of the Simian Virus 40 large T antigen (a kind gift from Dr. Drinkwater) to a primary culture of mdx myoblasts obtained from the mdx mice. The retrovirus was produced using the packaging cell line, Plat-E, as previously described (Morita, S., Kojima, T., Kitamura, T. (2000) Plat-E: an efficient andstable system for transient packaging of retroviruses. Gene Therapy 7, 1063-1066). The cell line was cultured and maintained in Dulbecco's Modified Eagle Medium (DMEM)-high glucose (4,500 mg/l) supplemented with 20% fetal calf serum at 32.5° C. in a CO2 incubator. To induce muscle differentiation, the culture medium was changed to a differentiation medium (10% horse serum in Eagle MEM) and the culture temperature was shifted to 39.5° C.
After induction of differentiation, the cells were cultured, and NM (50 μg/ml (2.0×10^−4 mol/kg) or 100 μg/ml (4.0×10^−4 mol/kg) in a differentiation medium solution) was added to the culture. Then, the cells were allowed to differentiate by culturing in the medium without an antibiotic for seven days. […]

[6] = assay type: in vivo; conditions: highest dose 1.2×10^−3 mol/kg/day (100×)
Description: In order to measure changes in body weight due to drug administration, male mdx mice (seven weeks old, four for each dose) were injected daily with NM at 1.2×10^−5 mol/kg (1× the effective dose), 1.2×10^−4 mol/kg (10×), 6.0×10^−4 mol/kg (50×), or 1.2×10^−3 mol/kg (100×) for 14 days. The body weight of each mouse was measured everyday. Other mdx mice (seven weeks old, two for each dose) were injected with GM (1.2×10^−3 mol/kg [100×]) as a control test. Body weight was also measured every day.

[7] = Ototoxicity assay: hearing threshold by auditory brain stem response; assay type: in vivo, Mdx mouse; conditions: 1.2×10^−4 mol/kg daily for seven days, measured one day after final injection
Description: One day after the final injection, the hearing threshold was measured based on auditory brain stem response, according to the method of Shapiro et al. (Shapiro, S. M., Moller, A. R., Shiu, G. K. Brain-stem auditory evoked potentials in rats with high-dose pentbarbital. (1984) Electroencephalogr. Clin. Neurophysiol. 58, 266-276).

Compound	percentage of dystrophin-positive TA muscle fibers ([1]; 1.2×10^−5 mol/kg/day subcutaneously for two weeks, FIG. 2)	dystrophin-positive fibers by immunofluorescence staining ([1]; TA muscle, 1.2×10^−5 mol/kg subcutaneously every day for two weeks)	percentage of fibers with increased membrane permeability (EBD-positive fibers) [2]	dystrophin expression level restored, relative to normal B10 hind leg muscle ([3]; hind leg muscle, immunoblotting, estimated)	dystrophin bands by immunoblotting ([3]; hind leg muscles (FIG. 3(1) G, H, I), 1.2×10^−5 mol/kg/day for two weeks, intensity lower than positive control B10)	dystrophin expression by immunofluorescence staining [4]	dystrophin (427 kDa) band by immunoblotting [5]	lethality [6]	hearing loss by auditory brain stem response [7]
CN(CC(=O)O)NC(=O)C[C@H](N)C[C@@H](O)CN [NM, negamycin]	higher than in GM-treated mdx mice	detected	lower in NM-treated mice than in GM-treated mice	about 10%	dystrophin bands were detected	strong fluorescence signals were detected	a clear band was detected at the position of 427 kDa	not lethally toxic	not in NM-treated mice
Gentamicin [GM, reference compound]	–	–	–	–	–	–	–	killed all of the tested mice within four hours	–

Source: patent US20050014835A1, “Agents for Treating Diseases Caused by Nonsense Mutations” (priority 2001, published 2005)
